{"source": "paper PMC8148468", "about": "“Shikimic acid protects skin cells from UV-induced senescence through activation of the NAD+-dependent deacetylase SIRT1” (Aging (Albany NY), 2021)", "type_in_all_cases": "cell-based, human", "key": {"p16^INK4a": {"system": "p16^INK4a", "experiment": "p16INK4a mRNA levels (qPCR)", "settings": "UVB-irradiated HDF, SA treatment", "method": "(§1) Figure 4 (A) SRB and Trypan blue cell viability assays performed in cells treated with or without Shikimic acid (5, 10, 25 and 50 mM) for 24h. (B) Apoptosis detection using the Annexin V-FITC/PI double staining followed by flow cytometry in non-irradiated and non-treated cells, irradiated and non-treated cells and irradiated cells treated with Shikimic acid (10, 25 and 50 mM). (C) Representation and statistical analysis of the percentage of apoptotic cells in each of the conditions analyzed. (D) Cell cycle analysis using PI staining followed by flow cytometry. (E) Relative p16^INK4a mRNA levels monitored by qPCR in the indicated conditions. Student T-test, *p<0.05. […]\nRNA was extracted from cell pellets using the Total RNA Purification Kit (Norgen, Canada), according to the manufacturer’s protocol. Extracted RNA was quantified using a NanoDrop® ND-1000 UV-Vis Spectrophotometer (Thermo Fisher Scientific, USA) and 300 ng of RNA were retrotranscribed to cDNA using the PrimeScriptTM RT reagent kit (Takara Bio Inc., Japan). cDNA was diluted 1/10 in ultrapure water and qPCR mix was prepared by adding cDNA (12 ng), SYBR green supermix (Bio Rad, USA), forward and reverse primers (0.2μM). […] The results were analyzed with Bio-Rad CFX Manager software. […]"}, "[1]": {"system": "H3K9ac (the target of SIRT1, SIRT2 and SIRT6)", "experiment": "Sirtuin activity assay in HDF: H3K9ac levels (Western blot)", "settings": "HDF treated 24h", "method": "(§2) Figure 1 (A) Schematic representation of the compound testing for sirtuin activity evaluation in HDF. Cells were treated with or without the compounds for 24h and harvested for analysis. […] (C) Western Blot analysis and (D) quantification of H4K16ac and H3K9ac levels in cells treated with Resveratrol or Shikimic acid at the indicated concentrations. H4K16 and H3K9 levels were normalized to H4 and H3 levels respectively. Student T-test, *p<0.05, **p<0.01, ***p<0.001.\n(§3) HDFs were plated in 100x20 mm2 cell culture plates and after 24h, fresh cell culture medium containing the compounds was added. After 24h, cells were detached with cell scrapers, harvested, and processed for qPCR or western blot.\n(§4) Protein levels were analyzed as previously described. Cells were directly lysed in 1x Laemmli Buffer (Bio-Rad, USA), incubated at 95° C and centrifuged. Supernatant was subjected to SDS-polyacrylamide gel electrophoresis, and successive steps were performed as described. The list of antibodies used is included in Supplementary Table 2."}, "SIRT1": {"system": "SIRT1", "experiment": "SIRT1 mRNA and protein levels in HDF", "settings": "Shikimic acid 5, 10, 25, 50 mM, 24h", "method": "RNA was extracted from cell pellets using the Total RNA Purification Kit (Norgen, Canada), according to the manufacturer’s protocol. Extracted RNA was quantified using a NanoDrop® ND-1000 UV-Vis Spectrophotometer (Thermo Fisher Scientific, USA) and 300 ng of RNA were retrotranscribed to cDNA using the PrimeScriptTM RT reagent kit (Takara Bio Inc., Japan). cDNA was diluted 1/10 in ultrapure water and qPCR mix was prepared by adding cDNA (12 ng), SYBR green supermix (Bio Rad, USA), forward and reverse primers (0.2μM). The primers and their respective sequences are listed in Supplementary Table 1. qPCR protocol included one step at 95° C for 30 s, 40 cycles at 95° C for 10s, and 60° C for 1min. The results were analyzed with Bio-Rad CFX Manager software. BACT was used as a housekeeping gene to normalize gene expression.\nas §4\n(§5) Student T-test, *p<0.05, **p<0.01, ***p<0.001.\n(1 picture or pasted object on this page, not shown here)"}, "HDF cells [2]": {"system": "HDF cells", "experiment": "SRB and Trypan blue cell viability assays", "settings": "Shikimic acid 5, 10, 25 and 50 mM, 24h", "method": "as §5\nThe protocol for senescence induction using UVB irradiation is described in the Supplementary Methods. SA-β-Gal staining, WST-1, sulforhodamine B (SRB) and trypan blue assays were performed as previously described. For the siRNA experiments, the protocol for senescence induction using UVB irradiation was the same as in the Supplementary Methods. Specific siRNA (Horizon discovery, UK) for SIRT1, SIRT2, SIRT6, BiP or scramble siRNA were incubated for 6 hours before each irradiation step."}, "[3]": {"system": "H4K16ac (the target of SIRT1 and SIRT2)", "experiment": "Sirtuin activity assay in HDF: H4K16ac levels (Western blot)", "settings": "UV conditions, -/+25mM SA -/+1μM EX-527"}, "[4]": {"system": "H3K9ac (the target of SIRT1, SIRT2 and SIRT6)", "experiment": "Sirtuin activity assay in HDF: H3K9ac levels (Western blot)", "settings": "UV conditions, -/+25mM SA -/+1μM EX-527"}, "γH2AX": {"system": "γH2AX", "experiment": "γH2AX immunofluorescence assay", "settings": "UVB irradiation, SA 10, 25, 50 mM", "method": "as §1, with “*p<0.05. (F) Immunofluorescence of γH2AX in non-irradiated and non-treated cells, irradiated and non-treated cells and irradiated cells treated with Shikimic acid (10, 25 and 50 mM).” for “*p<0.05.”\nThe staining and detection of γH2AX foci by immunofluorescence was performed as previously described. Slides were analyzed by confocal microscopy using a Confocal Leica SP5 microscope (Leica Microsystems) with a 63x objective."}, "HDF cells [5]": {"system": "HDF cells", "experiment": "Cell cycle analysis, PI staining flow cytometry", "method": "Figure 4 (A) SRB and Trypan blue cell viability assays performed in cells treated with or without Shikimic acid (5, 10, 25 and 50 mM) for 24h. (B) Apoptosis detection using the Annexin V-FITC/PI double staining followed by flow cytometry in non-irradiated and non-treated cells, irradiated and non-treated cells and irradiated cells treated with Shikimic acid (10, 25 and 50 mM). (C) Representation and statistical analysis of the percentage of apoptotic cells in each of the conditions analyzed. (D) Cell cycle analysis using PI staining followed by flow cytometry. (E) Relative p16^INK4a mRNA levels monitored by qPCR in the indicated conditions. Student T-test, *p<0.05. (F) Immunofluorescence of γH2AX in non-irradiated and non-treated cells, irradiated and non-treated cells and irradiated cells treated with Shikimic acid (10, 25 and 50 mM). (G) Principal component analysis (PCA) on Savitzky–Golay second derivatized spectra in the fingerprint region (1800–950 cm−1) for non-irradiated cells (No UVB), irradiated non-treated cells (UVB), irradiated cells treated with Shikimic acid 25 mM (UVB SA) and irradiated cells treated with Shikimic acid 25 mM plus EX-527 1 μM (UVB SA+EX-527). Student T-test, *p<0.05, **p<0.01, ***p<0.001. (H) Beta-sheet to alpha-helix ratio obtained by curve-fitting analysis of the amide I band (1700-1600 cm-1).\nFluorescence-activated cell sorting (FACS) analyses of the cell cycle and apoptosis were carried out using, respectively, a Propidium Iodide Flow Cytometry Kit (Abcam, UK), and an Annexin V-FITC Apoptosis Staining/Detection Kit (Abcam, UK), following the manufacturer’s instructions.\nSenescence induction by UVB irradiation For the non-irradiation control conditions, HDF were plated at a density of 6×10^4 cells/plate in 6-well\nHDF were plated at a density of 6×10^4 cells/plate in 6- plates. After 24h, culture medium was removed and well plates. After 24h, culture medium was removed replaced by fresh cell culture medium containing the and replaced with fresh cell culture medium containing compounds at different concentrations. […]"}, "[6]": {"system": "H4K16ac (the target of SIRT1 and SIRT2)", "experiment": "Sirtuin activity assay in HDF: H4K16ac levels (Western blot)", "settings": "HDF treated 24h", "method": "as §2, §3, §4"}}}
{"smiles": "O=C(O)C1=C[C@@H](O)[C@@H](O)[C@H](O)C1", "note": "[Shikimic acid]", "values": [{"measurement": "p16INK4a mRNA levels", "setting": "p16^INK4a", "result": "downregulation of the cell cycle regulator p16"}, {"measurement": "effect on H3K9ac levels", "setting": "[1]", "result": "induced a similar effect on both targets"}, {"measurement": "SIRT1 gene expression and protein levels", "setting": "SIRT1", "result": "did not observe any significant correlation with gene expression and protein levels"}, {"measurement": "cytotoxicity (SRB/trypan blue assay)", "setting": "HDF cells [2]", "result": "no differences in cytotoxicity"}, {"measurement": "H4K16ac/H4 levels under UV-induced senescence", "setting": "[3]", "result": "induced increased deacetylation of H3K9ac and H4K16ac"}, {"measurement": "H3K9ac/H3 levels under UV-induced senescence", "setting": "[4]", "result": "induced increased deacetylation of H3K9ac and H4K16ac"}, {"measurement": "accumulation of DNA damage (γH2AX)", "setting": "γH2AX", "result": "did not alter the accumulation of DNA damage"}, {"measurement": "frequency of polyploidies", "setting": "HDF cells [5]; UVB irradiation", "result": "did not alter the accumulation of DNA damage or the frequency of polyploidies"}, {"measurement": "cells in S-phase", "setting": "HDF cells [5]; UVB-irradiated HDF", "result": "progressive increase in the number of cells in S-phase"}, {"measurement": "cell cycle", "setting": "HDF cells [5]; absence of UVB irradiation", "result": "did not alter the cell cycle"}, {"measurement": "effect on H4K16ac levels", "setting": "[6]", "result": "induced a similar effect on both targets"}]}
